Reference: paper PMC8991199, “Promiscuity mapping of the S100 protein family using a high-throughput holdup assay” (Scientific Reports, 2022)

What was measured:
Format in all cases: binding
[1] = target: T1, S100A3 (Homo sapiens, UniProt P33764); test: direct fluorescence polarization (FP), S100A3; conditions: S100A3, 50 nM labeled foldamer, 20 mM HEPES pH 7.5, 150 mM NaCl, 1 mM CaCl2, 0.5 mM TCEP, 0.01% Tween20, quadratic fit, mean ± SEM, three technical repeats, threshold 1 mM
T1 sequence (P33764 1-101): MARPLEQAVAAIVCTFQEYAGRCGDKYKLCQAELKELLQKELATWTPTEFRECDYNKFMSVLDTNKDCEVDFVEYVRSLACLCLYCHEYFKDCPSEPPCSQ
Procedure: (§1) HTP (and also low-throughput) measurements generally need to be validated by an orthogonal approach to eliminate experimental artifacts. […] This way, we chose WL, IF, WW, YF, IL, VL, TW, RF, RR, TI, TM, and after resynthesizing with a fluorescent label at the C-terminus (Figs. S15–S26, Table S1), the S100ome was tested against the labeled foldamers by direct fluorescence polarization (FP) (Fig. 3A). In this assay, the association of the fluorescently labeled foldamer and the S100 protein of interest is monitored, through the change in polarization of the emitted light by the fluorophore upon the binding event. In direct FP, the presence of the fluorophore might change the binding affinity of some foldamers. […] Nevertheless, we assumed that the fluorophore would affect all foldamers that target the same binding site to the same degree, because the foldamer scaffold is rigid. Defining the threshold of detection at the dissociation constant of 1 mM, we identified 87 interactions between the selected foldamer fragments and the S100ome out of 220 possible interactions (Table 1, Fig. S4-14).
(§2) Briefly, S100 proteins were cloned into a modified pET15b vector with a TEV protease cleavable N-terminal His6-tag and expressed in Escherichia coli BL21 (DE3) cells, followed by Ni^2+-affinity chromatography. For HU assay, S100 proteins were further purified by either hydrophobic interaction chromatography or ion exchange chromatography without the cleavage of the N-terminal His6-tag applying standard conditions. For direct FP measurements, the N-terminal His6-tag was cleaved, and the S100 proteins were purified by hydrophobic interaction chromatography, ion exchange chromatography or size exclusion chromatography. The quality of the recombinant proteins was checked by SDS-PAGE analysis in all cases. The concentration of the recombinant S100 proteins was determined by UV spectrophotometry using the absorbance of Tyr and Trp residues.
(§3) In direct fluorescence polarization assays, S100 proteins were diluted in a buffer containing 50 nM labeled foldamer, 20 mM HEPES pH 7.5, 150 mM NaCl, 1 mM CaCl2, 0.5 mM TCEP and 0.01% Tween20. The dilution series (50 µl) were divided into three technical repeats and transferred (15 µl) to a 384-well microplate. In competitive fluorescence polarization assays, the buffer applied in direct measurements was supplemented with the S100 protein of interest to reach a saturation of 60–80%. This mixture was titrated with the competitor (i.e. the unlabeled peptide). Fluorescence polarization was measured in 8 different S100 concentrations (one of which contained no S100 protein) on a Synergy H4 plate reader using 485 ± 20 nm and 528 ± 20 nm band-pass filters for excitation and emission, respectively. The Kd values were obtained by fitting the data from the FP measurements with the python-based ProFit software using quadratic and competitive binding equation for direct and competitive FP, respectively. The detection threshold was based on two parameters. First, we rejected all fitted dissociation constants above 1 mM.

[2] = target: T2, S100A16 (Homo sapiens, UniProt Q96FQ6); test: direct fluorescence polarization (FP), S100A16; conditions: S100A16, 50 nM labeled foldamer, 20 mM HEPES pH 7.5, 150 mM NaCl, 1 mM CaCl2, 0.5 mM TCEP, 0.01% Tween20, quadratic fit, mean ± SEM, three technical repeats, threshold 1 mM
T2 sequence (Q96FQ6 1-103): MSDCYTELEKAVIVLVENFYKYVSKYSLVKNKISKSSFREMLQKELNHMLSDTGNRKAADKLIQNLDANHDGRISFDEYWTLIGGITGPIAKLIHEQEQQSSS
Procedure: as §1, §2, §3

[3] = target: T3, S100A9 (Homo sapiens, UniProt P06702); test: direct fluorescence polarization (FP), S100A9; conditions: S100A9, 50 nM labeled foldamer, 20 mM HEPES pH 7.5, 150 mM NaCl, 1 mM CaCl2, 0.5 mM TCEP, 0.01% Tween20, quadratic fit, mean ± SEM, three technical repeats, threshold 1 mM
T3 sequence (P06702 1-114): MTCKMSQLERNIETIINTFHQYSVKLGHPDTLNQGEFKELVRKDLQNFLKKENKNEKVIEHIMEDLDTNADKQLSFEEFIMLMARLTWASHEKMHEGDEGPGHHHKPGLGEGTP
Procedure: as §1, §2, §3

[4] = target: T4, S100A7 (Homo sapiens, UniProt P31151); test: direct fluorescence polarization (FP), S100A7; conditions: S100A7, 50 nM labeled foldamer, 20 mM HEPES pH 7.5, 150 mM NaCl, 1 mM CaCl2, 0.5 mM TCEP, 0.01% Tween20, quadratic fit, mean ± SEM, three technical repeats, threshold 1 mM
T4 sequence (P31151 1-101): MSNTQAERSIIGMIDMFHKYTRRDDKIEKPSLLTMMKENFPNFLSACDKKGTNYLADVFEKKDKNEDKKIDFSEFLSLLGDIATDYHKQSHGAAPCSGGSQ
Procedure: as §1, §2, §3

[5] = target: S100A2 (Homo sapiens, UniProt P29034); test: direct fluorescence polarization (FP), S100A2; conditions: S100A2, 50 nM labeled foldamer, 20 mM HEPES pH 7.5, 150 mM NaCl, 1 mM CaCl2, 0.5 mM TCEP, 0.01% Tween20, quadratic fit, mean ± SEM, three technical repeats, threshold 1 mM
Description: (§4) HTP (and also low-throughput) measurements generally need to be validated by an orthogonal approach to eliminate experimental artifacts. […] In this assay, the association of the fluorescently labeled foldamer and the S100 protein of interest is monitored, through the change in polarization of the emitted light by the fluorophore upon the binding event. In direct FP, the presence of the fluorophore might change the binding affinity of some foldamers. […] Nevertheless, we assumed that the fluorophore would affect all foldamers that target the same binding site to the same degree, because the foldamer scaffold is rigid.
as §2, §3

[6] = target: T5, S100Z (Homo sapiens, UniProt Q8WXG8); test: direct fluorescence polarization (FP), S100Z; conditions: 50 nM labeled foldamer, 20 mM HEPES pH 7.5, 150 mM NaCl, 1 mM CaCl2, 0.5 mM TCEP, 0.01% Tween20, quadratic fit, mean ± SEM, three technical repeats, threshold 1 mM
T5 sequence (Q8WXG8 1-99): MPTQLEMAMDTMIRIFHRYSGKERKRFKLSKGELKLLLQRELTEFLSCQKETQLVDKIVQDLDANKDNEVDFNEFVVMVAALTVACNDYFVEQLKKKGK
Description: as §4, §2, §3

S100A2, sequence (P29034 whole entry): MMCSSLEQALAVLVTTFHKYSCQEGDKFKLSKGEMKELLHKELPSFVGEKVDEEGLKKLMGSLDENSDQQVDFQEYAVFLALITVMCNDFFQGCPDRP

Row | Structure (SMILES) | Kd [1] | Kd [2] | Kd [3] | Kd [4] | Kd [5] | Kd [6]
1 | CC[C@H](C)[C@@H](CC(=O)N[C@H]1CCCC[C@@H]1C(=O)N[C@H]1CCCC[C@@H]1C(=O)N[C@H](CC(=O)N[C@H]1CCCC[C@@H]1C(=O)NCC(=O)N[C@@H](CCCCNC(=O)c1ccc2c(c1)C1(OC2=O)c2ccc(O)cc2Oc2cc(O)ccc21)C(N)=O)Cc1ccccc1)NC(=O)[C@H]1CCCC[C@@H]1N [fIF] | 180 ± 8.4 µM | > 1000 µM | > 1000 µM | > 1000 µM | 38 ± 1.5 µM | 480 ± 31 µM
2 | NC(=O)[C@H](CCCCNC(=O)c1ccc2c(c1)C1(OC2=O)c2ccc(O)cc2Oc2cc(O)ccc21)NC(=O)CNC(=O)[C@H]1CCCC[C@@H]1NC(=O)C[C@H](Cc1ccccc1)NC(=O)[C@H]1CCCC[C@@H]1NC(=O)[C@H]1CCCC[C@@H]1NC(=O)C[C@H](Cc1ccc(O)cc1)NC(=O)[C@H]1CCCC[C@@H]1N [fYF] | > 1000 µM | > 1000 µM | > 1000 µM | > 1000 µM | 26 ± 2.1 µM | > 1000 µM
3 | CC(C)C[C@@H](CC(=O)N[C@H]1CCCC[C@@H]1C(=O)NCC(=O)N[C@@H](CCCCNC(=O)c1ccc2c(c1)C1(OC2=O)c2ccc(O)cc2Oc2cc(O)ccc21)C(N)=O)NC(=O)[C@H]1CCCC[C@@H]1NC(=O)[C@H]1CCCC[C@@H]1NC(=O)C[C@H](Cc1c[nH]c2ccccc12)NC(=O)[C@H]1CCCC[C@@H]1N [fWL] | > 1000 µM | 304 ± 131 µM | > 1000 µM | 23 ± 1.5 µM | 11 ± 0.39 µM | > 1000 µM
4 | CC[C@H](C)[C@@H](CC(=O)N[C@H]1CCCC[C@@H]1C(=O)NCC(=O)N[C@@H](CCCCNC(=O)c1ccc2c(c1)C1(OC2=O)c2ccc(O)cc2Oc2cc(O)ccc21)C(N)=O)NC(=O)[C@H]1CCCC[C@@H]1NC(=O)[C@H]1CCCC[C@@H]1NC(=O)C[C@@H](NC(=O)[C@H]1CCCC[C@@H]1N)[C@@H](C)O [fTI] | > 1000 µM | > 1000 µM | > 1000 µM | > 1000 µM | > 1000 µM | > 1000 µM
5 | NC(=O)[C@H](CCCCNC(=O)c1ccc2c(c1)C1(OC2=O)c2ccc(O)cc2Oc2cc(O)ccc21)NC(=O)CNC(=O)[C@H]1CCCC[C@@H]1NC(=O)C[C@H](Cc1c[nH]c2ccccc12)NC(=O)[C@H]1CCCC[C@@H]1NC(=O)[C@H]1CCCC[C@@H]1NC(=O)C[C@H](Cc1c[nH]c2ccccc12)NC(=O)[C@H]1CCCC[C@@H]1N [fWW] | 310 ± 21 µM | > 1000 µM | > 1000 µM | > 1000 µM | 65 ± 1.2 µM | > 1000 µM

The next lines start with the values.

Row | Kd [1] | Kd [2] | Kd [3] | Kd [4] | Kd [5] | Kd [6] | Structure (SMILES)
6 | > 1000 µM | > 1000 µM | > 1000 µM | > 1000 µM | – | – | C[C@@H](O)[C@@H](CC(=O)N[C@H]1CCCC[C@@H]1C(=O)N[C@H]1CCCC[C@@H]1C(=O)N[C@H](CC(=O)N[C@H]1CCCC[C@@H]1C(=O)NCC(=O)N[C@@H](CCCCNC(=O)c1ccc2c(c1)C1(OC2=O)c2ccc(O)cc2Oc2cc(O)ccc21)C(N)=O)Cc1c[nH]c2ccccc12)NC(=O)[C@H]1CCCC[C@@H]1N [fTW]
7 | > 1000 µM | > 1000 µM | > 1000 µM | > 1000 µM | > 1000 µM | > 1000 µM | CSCC[C@@H](CC(=O)N[C@H]1CCCC[C@@H]1C(=O)NCC(=O)N[C@@H](CCCCNC(=O)c1ccc2c(c1)C1(OC2=O)c2ccc(O)cc2Oc2cc(O)ccc21)C(N)=O)NC(=O)[C@H]1CCCC[C@@H]1NC(=O)[C@H]1CCCC[C@@H]1NC(=O)C[C@@H](NC(=O)[C@H]1CCCC[C@@H]1N)[C@@H](C)O [fTM]
8 | > 1000 µM | > 1000 µM | > 1000 µM | > 1000 µM | 210 ± 110 µM | > 1000 µM | CC(C)C[C@@H](CC(=O)N[C@H]1CCCC[C@@H]1C(=O)NCC(=O)N[C@@H](CCCCNC(=O)c1ccc2c(c1)C1(OC2=O)c2ccc(O)cc2Oc2cc(O)ccc21)C(N)=O)NC(=O)[C@H]1CCCC[C@@H]1NC(=O)[C@H]1CCCC[C@@H]1NC(=O)C[C@@H](NC(=O)[C@H]1CCCC[C@@H]1N)C(C)C [fVL]
9 | > 1000 µM | > 1000 µM | > 1000 µM | > 1000 µM | 78 ± 8.7 µM | > 1000 µM | CC[C@H](C)[C@@H](CC(=O)N[C@H]1CCCC[C@@H]1C(=O)N[C@H]1CCCC[C@@H]1C(=O)N[C@H](CC(=O)N[C@H]1CCCC[C@@H]1C(=O)NCC(=O)N[C@@H](CCCCNC(=O)c1ccc2c(c1)C1(OC2=O)c2ccc(O)cc2Oc2cc(O)ccc21)C(N)=O)CC(C)C)NC(=O)[C@H]1CCCC[C@@H]1N [fIL]
10 | > 1000 µM | > 1000 µM | > 1000 µM | > 1000 µM | 340 ± 21 µM | 890 ± 120 µM | N=C(N)NCCC[C@@H](CC(=O)N[C@H]1CCCC[C@@H]1C(=O)N[C@H]1CCCC[C@@H]1C(=O)N[C@H](CC(=O)N[C@H]1CCCC[C@@H]1C(=O)NCC(=O)N[C@@H](CCCCNC(=O)c1ccc2c(c1)C1(OC2=O)c2ccc(O)cc2Oc2cc(O)ccc21)C(N)=O)Cc1ccccc1)NC(=O)[C@H]1CCCC[C@@H]1N [fRF]
11 | > 1000 µM | > 1000 µM | > 1000 µM | > 1000 µM | 61 ± 5.5 µM | > 1000 µM | N=C(N)NCCC[C@@H](CC(=O)N[C@H]1CCCC[C@@H]1C(=O)NCC(=O)N[C@@H](CCCCNC(=O)c1ccc2c(c1)C1(OC2=O)c2ccc(O)cc2Oc2cc(O)ccc21)C(N)=O)NC(=O)[C@H]1CCCC[C@@H]1NC(=O)[C@H]1CCCC[C@@H]1NC(=O)C[C@H](CCCNC(=N)N)NC(=O)[C@H]1CCCC[C@@H]1N [fRR]
